Measured values from ChEMBL document CHEMBL3856228, “Design and Synthesis of Pyridone-Containing 3,4-Dihydroisoquinoline-1(2H)-ones as a Novel Class of Enhancer of Zeste Homolog 2 (EZH2) Inhibitors” (J Med Chem, 2016).
Converted amounts (≈) assume the structure as drawn. The source made the active and inactive calls. No cut-off for these calls is given here.

Key:
[1] = Lipophilicity, log D of the compound at pH 7.4; settings: buffer
[2] = target: T1, Histone-lysine N-methyltransferase EZH2 (Homo sapiens, UniProt O75530+Q09028+Q15022+Q15910); test: Inhibition of wild-type EZH2 (unknown origin) expressed in baculovirus infected SF9 cells co-expressing SUZ12/EED/RbAp48 complex using HeLa cells derived oligonucleosomes as substrate after 60 mins in presence of [3H] SAM by scintillation counting
[3] = target: Histone-lysine N-methyltransferase EZH2 (Homo sapiens, UniProt O75530+Q09028+Q15022+Q15910, Y641N); test: Inhibition of EZH2 Y641N mutant (unknown origin) expressed in baculovirus infected SF9 cells co-expressing SUZ12/EED/RbAp48 complex using HeLa cells derived oligonucleosomes as substrate after 60 mins in presence of [3H] SAM by scintillation counting
[4] = target: Histone-lysine N-methyltransferase EZH2 (Homo sapiens, UniProt Q15910); test: Inhibition of EZH2 in human KARPAS422 cells assessed as reduction in H3K27Me3 levels after 72 hrs by ELISA; type: cell-based
[5] = Cytotoxicity against human KARPAS422 cells assessed as inhibition of cell proliferation after 72 hrs; type: functional, cell-based; settings: KARPAS-422, 72 h
[6] = Intrinsic clearance in human liver microsomes at 1 uM after 45 mins in presence of NADPH by LC-MS/MS analysis; type: ADME; settings: read-out: CLH
MDR1 [7] = test: in vitro; settings: dog, MDCK-MDR1
Description: Efflux ratio of permeability from basolateral to apical side over apical to basolateral side in MDCK cells expressing MDR1

KARPAS-422 [8] = test: Antitumor activity against human KARPAS422 cells xenografted in Scid beige mouse assessed as tumor regression at 200 to 300 mg/kg, bid for 20 days measured on day 20; type: functional, organism-based
KARPAS-422 [9] = test: Antitumor activity against human KARPAS422 cells xenografted in Scid beige mouse assessed as tumor stasis at 200 to 300 mg/kg, bid for 20 days measured on day 20; type: functional, organism-based
[10] = Intrinsic clearance in mouse liver microsomes at 1 uM after 45 mins in presence of NADPH by LC-MS/MS analysis; type: ADME; settings: read-out: CLH
KARPAS-422 [11] = test: Antitumor activity against human KARPAS422 cells xenografted in Scid beige mouse assessed as tumor growth inhibition at 200 to 300 mg/kg, bid for 20 days measured for 3 weeks post last dose; type: functional, organism-based
Mus musculus [12] = test: In vivo inhibition of EZH2 in Scid beige mouse xenografted with human KARPAS422 cells assessed as upregulation of TNFRSF21 expression at 300 mg/kg, bid for 20 days measured 1 to 4 hrs post last dose on day 20 relative to control; type: functional
Mus musculus [13] = test: In vivo inhibition of EZH2 in Scid beige mouse xenografted with human KARPAS422 cells assessed as upregulation of PRDM1 expression at 300 mg/kg, bid for 20 days measured 1 to 4 hrs post last dose on day 20 relative to control; type: functional
Mus musculus [14] = test: In vivo inhibition of EZH2 in Scid beige mouse xenografted with human KARPAS422 cells assessed as reduction in H3K27Me3 levels at 300 mg/kg, bid for 20 days measured 1 to 4 hrs post last dose on day 20 by ELISA; type: functional; settings: KARPAS-422
Mus musculus [15] = test: In vivo inhibition of EZH2 in Scid beige mouse xenografted with human KARPAS422 cells assessed as upregulation of TNFRSF21 expression at 200 mg/kg, bid for 20 days measured 1 to 4 hrs post last dose on day 20 relative to control; type: functional
Mus musculus [16] = test: Toxicity in Scid beige mouse xenografted with human KARPAS422 cells assessed as body weight loss at 200 to 300 mg/kg, bid for 20 days measured during compound dosing; type: organism-based; settings: in vivo, 480 h
[17] = Time duration during which free plasma concentration stays above in vitro cell IC90 in mouse at 300 mg/kg; type: ADME, organism-based; settings: in vivo
MDR1 [18] = test: Permeability across apical to basolateral side in MDCK cells expressing MDR1; type: ADME, cell-based, Canis lupus familiaris; settings: dog, read-out: permeability
[19] = Permeability in RRCK cells; type: ADME, cell-based, Canis lupus familiaris, MDCKII-LE; settings: dog, MDCK; read-out: permeability
Mus musculus [20] = test: In vivo inhibition of EZH2 in Scid beige mouse xenografted with human KARPAS422 cells assessed as upregulation of PRDM1 expression at 200 mg/kg, bid for 20 days measured 1 to 4 hrs post last dose on day 20 relative to control; type: functional
[21] = Kinetic solubility of the compound; type: physicochemical; settings: read-out: Kinetic_solubility
[22] = Time duration during which free plasma concentration stays at or below in vitro cell IC50 in mouse at 30 to 100 mg/kg; type: ADME, organism-based; settings: in vivo
[23] = Protein binding in mouse plasma at 30 to 300 mg/kg; type: ADME, organism-based; settings: read-out: PPB (converted)
Mus musculus [24] = test: In vivo inhibition of EZH2 in human KARPAS422 cells xenografted in Scid beige mouse assessed as reduction in H3K27Me3 levels at 200 mg/kg, bid for 20 days measured 1 to 4 hrs post last dose on day 20 by ELISA; type: functional; settings: KARPAS-422
[25] = target: T1, Histone-lysine N-methyltransferase EZH2; test: Binding affinity to EZH2 (unknown origin) expressed in baculovirus infected SF9 cells co-expressing SUZ12/EED/RbAp48 complex by ITC analysis

T1 sequence (Q15910 whole entry, one chain of several): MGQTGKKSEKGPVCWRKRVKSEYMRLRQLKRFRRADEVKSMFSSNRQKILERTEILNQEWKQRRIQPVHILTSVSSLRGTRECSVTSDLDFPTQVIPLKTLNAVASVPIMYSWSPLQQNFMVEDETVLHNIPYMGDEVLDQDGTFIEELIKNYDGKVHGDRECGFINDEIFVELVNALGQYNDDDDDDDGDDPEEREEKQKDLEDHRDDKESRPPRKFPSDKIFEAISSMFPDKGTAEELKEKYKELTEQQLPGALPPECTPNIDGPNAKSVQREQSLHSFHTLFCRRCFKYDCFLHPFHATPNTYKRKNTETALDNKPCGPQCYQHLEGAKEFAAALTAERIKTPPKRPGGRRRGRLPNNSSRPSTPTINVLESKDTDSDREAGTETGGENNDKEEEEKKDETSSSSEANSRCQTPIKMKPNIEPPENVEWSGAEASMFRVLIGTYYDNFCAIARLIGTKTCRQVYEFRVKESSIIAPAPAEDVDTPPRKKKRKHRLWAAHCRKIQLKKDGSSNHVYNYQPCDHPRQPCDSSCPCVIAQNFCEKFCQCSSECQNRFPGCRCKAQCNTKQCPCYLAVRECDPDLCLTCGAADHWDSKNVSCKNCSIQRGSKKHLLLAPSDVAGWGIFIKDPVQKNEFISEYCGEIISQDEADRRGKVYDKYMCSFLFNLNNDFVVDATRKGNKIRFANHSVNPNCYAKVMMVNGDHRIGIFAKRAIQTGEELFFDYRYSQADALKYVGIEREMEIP
Chain of Histone-lysine N-methyltransferase EZH2 (Homo sapiens, UniProt Q15910) (Q15910 whole entry): as the sequence (Q15910 whole entry, one chain of several) above
Chain of Histone-lysine N-methyltransferase EZH2 (Homo sapiens, UniProt O75530+Q09028+Q15022+Q15910, Y641N) (Q15910 whole entry Y641N, one chain of several): as the sequence (Q15910 whole entry, one chain of several) above, with Y641N counted along it

Cc1cc(C)c(CN2CCc3c(Cl)cc(-c4c(C)n[nH]c4C)c(Cl)c3C2=O)c(=O)[nH]1
logD [1]: 3.4 | IC50 [2]: 0.016 µM | IC50 [3]: 0.082 µM | IC50 [4]: 0.502 µM | IC50 [5]: 0.959 µM

Cc1cc(C)c(CN2CCc3ccc(OC(C)C)cc3C2=O)c(=O)[nH]1
logD [1]: 2.5 | microsomal CLint at 1 µM [6]: 19 µL/min/mg

COc1cccc(C(=O)NCc2c(C)cc(C)[nH]c2=O)c1OC
logD [1]: 1.7 | IC50 [2]: > 140 µM

Cc1cc(C)c(CN2CCc3ccc(-c4c(C)noc4C)c(Cl)c3C2=O)c(=O)[nH]1
logD [1]: 2.6 | IC50 [2]: 0.0032 µM | Ki [2]: 0.002 µM | IC50 [3]: 0.0088 µM | Ki [3]: 0.0063 µM | IC50 [4]: 0.105 µM | IC50 [5]: 0.121 µM

Cc1cc(C)c(CNC(=O)c2ccccc2C)c(=O)[nH]1
IC50 [2]: > 200 µM

CCOc1ccc2c(c1Cl)C(=O)N(Cc1c(C)cc(C)[nH]c1=O)CC2
logD [1]: 2.2 | microsomal CLint at 1 µM [6]: 37 µL/min/mg

Cc1cc(C)c(CN2CCc3c(Cl)cc(-c4c(C)nn(C)c4C)c(Cl)c3C2=O)c(=O)[nH]1
logD [1]: 3.4 | IC50 [2]: 1.5 µM | IC50 [3]: 6 µM | IC50 [4]: 15.3 µM | IC50 [5]: 12.8 µM

COc1cccc(C(=O)NCc2c(C)cc(C)[nH]c2=O)c1O
logD [1]: 1.9 | IC50 [2]: 44 µM

Cc1cc(C)c(CN2CCc3c(Cl)cc(-c4c(C)noc4C)c(Cl)c3C2=O)c(=O)[nH]1
efflux ratio (MDR1 [7]): 4.6 | Activity (KARPAS-422 [8]): Active | Activity (KARPAS-422 [9]): Active | microsomal CLint at 1 µM [10]: 531 µL/min/mg | logD [1]: 3.1 | TGI (KARPAS-422 [11]): Active | fold change (FC) (Mus musculus [12]): 208.9 | Ki [2]: 0.0007 µM | microsomal CLint at 1 µM [6]: 107 µL/min/mg | fold change (FC) (Mus musculus [13]): 57.9 | inhibition in vivo at 300 mg/kg (Mus musculus [14]): 66.4% | fold change (FC) (Mus musculus [15]): 99.2 | Activity (Mus musculus [16]): < 10% | Time [17]: <= 6 hr | Papp A→B (MDR1 [18]): 5.2 ×10⁻⁶ cm/s | Papp [19]: 15.7 ×10⁻⁶ cm/s | fold change (FC) (Mus musculus [20]): 31.6 | IC50 [4]: 0.015 µM | IC50 [5]: 0.025 µM | solubility kinetic [21]: 93.5 µM (≈ 41.7 µg/mL) | Time [22]: 6 h | fraction unbound [23]: 0.85 | inhibition in vivo at 200 mg/kg (Mus musculus [24]): 55.5%

COc1cccc(C(=O)NCc2c(C)cc(C)[nH]c2=O)c1F
logD [1]: 1.4 | IC50 [2]: > 150 µM

Cc1cc(C)c(CNC(=O)c2cccc(OC(C)C)c2Cl)c(=O)[nH]1
logD [1]: 2 | IC50 [2]: 1.3 µM

COc1ccc2c(c1Cl)C(=O)N(Cc1c(C)cc(C)[nH]c1=O)CCC2
logD [1]: 1.7 | IC50 [2]: 0.15 µM | microsomal CLint at 1 µM [6]: 82 µL/min/mg

Cc1cc(C)c(CN2CCc3c(F)cc(O[C@@H]4CCOC4)c(Cl)c3C2=O)c(=O)[nH]1
logD [1]: 2.1 | IC50 [2]: 0.056 µM | IC50 [3]: 0.26 µM | IC50 [4]: 0.994 µM | IC50 [5]: 1.03 µM

Cc1cc(C)c(CN2CCc3ccc(OC(C)C)c(Cl)c3C2=O)c(=O)[nH]1
logD [1]: 2.7 | microsomal CLint at 1 µM [6]: 53 to 53.8 µL/min/mg | Papp A→B (MDR1 [18]): 7.9 ×10⁻⁶ cm/s | Papp [19]: 19.6 ×10⁻⁶ cm/s | IC50 [4]: 1.19 µM | IC50 [5]: 1.16 µM | solubility kinetic [21]: 19.6 µM (≈ 7.35 µg/mL)

Cc1cc(C)c(CN2CCc3c(Cl)cc(-c4cn[nH]c4C)c(Cl)c3C2=O)c(=O)[nH]1
logD [1]: 3.1 | IC50 [2]: 0.024 µM | IC50 [3]: 0.11 µM | IC50 [4]: 0.873 µM | IC50 [5]: 1.34 µM

COc1cccc(C(=O)NCc2c(C)cc(C)[nH]c2=O)c1C
logD [1]: 1.5 | IC50 [2]: 5.7 µM

Cc1cc(C)c(CN2CCc3c(C)cc(O[C@@H]4CCOC4)c(Cl)c3C2=O)c(=O)[nH]1
logD [1]: 2.1 | IC50 [2]: 0.018 µM | IC50 [3]: 0.061 µM | IC50 [4]: 0.29 µM | IC50 [5]: 0.406 µM

COc1ccc2c(c1Cl)C(=O)N(Cc1c(C)cc(C)[nH]c1=O)CC2
logD [1]: 1.8 | microsomal CLint at 1 µM [6]: 35 µL/min/mg

COc1cccc(C(=O)NCc2c(C)cc(C)[nH]c2=O)c1
logD [1]: 1.7 | IC50 [2]: > 150 µM

CCOc1cccc(C(=O)NCc2c(C)cc(C)[nH]c2=O)c1C
logD [1]: 2.1 | IC50 [2]: 2 µM

Cc1cc(C)c(CN2CCc3ccc(O[C@@H]4CCOC4)c(Cl)c3C2=O)c(=O)[nH]1
microsomal CLint at 1 µM [10]: 31 µL/min/mg | logD [1]: 1.5 | microsomal CLint at 1 µM [6]: 21 µL/min/mg | Papp A→B (MDR1 [18]): 1.7 ×10⁻⁶ cm/s | Papp [19]: 12.3 ×10⁻⁶ cm/s | IC50 [4]: 0.796 µM | IC50 [5]: 0.512 µM | solubility kinetic [21]: 510 µM (≈ 205 µg/mL)

COc1cccc(C(=O)NCc2c(C)cc(C)[nH]c2=O)c1Cl
logD [1]: 1.2 | IC50 [2]: 7.2 µM | microsomal CLint at 1 µM [6]: 8 µL/min/mg

Cc1cc(C)c(CN2CCc3ccc(OC(C)C)c(C)c3C2=O)c(=O)[nH]1
Kd [25]: 0.0374 µM | IC50 [2]: 0.16 µM | microsomal CLint at 1 µM [6]: 102 µL/min/mg

Cc1cc(C)c(CN2CCc3c(Cl)cc(O[C@@H]4CCOC4)c(Cl)c3C2=O)c(=O)[nH]1
efflux ratio (MDR1 [7]): 4.7 | microsomal CLint at 1 µM [10]: 163 µL/min/mg | logD [1]: 2.5 | IC50 [2]: 0.0056 µM | microsomal CLint at 1 µM [6]: 21 µL/min/mg | IC50 [3]: 0.018 µM | Papp A→B (MDR1 [18]): 4.5 ×10⁻⁶ cm/s | Papp [19]: 14.7 ×10⁻⁶ cm/s | IC50 [4]: 0.17 µM | IC50 [5]: 0.155 µM | solubility kinetic [21]: 26 µM (≈ 11.4 µg/mL)

Cc1cc(C)c(CN2CCc3c(Cl)cc(-c4cn[nH]c4)c(Cl)c3C2=O)c(=O)[nH]1
logD [1]: 3 | IC50 [2]: 0.051 µM | IC50 [3]: 0.27 to 0.271 µM | IC50 [4]: 1.73 µM | IC50 [5]: 1.58 µM

Cc1cc(C)c(CNC(=O)c2cccc(OC(C)C)c2C)c(=O)[nH]1
Kd [25]: 0.252 µM | logD [1]: 2.1 | IC50 [2]: 1.4 µM

COc1ccc2c(c1Cl)C(=O)N(Cc1c(C)cc(C)[nH]c1=O)CCO2
logD [1]: 1.3 | IC50 [2]: 0.65 µM | microsomal CLint at 1 µM [6]: 40 µL/min/mg
